{"source": "paper PMC9030254", "about": "“Target Hopping from Protein Kinases to PXR: Identification of Small-Molecule Protein Kinase Inhibitors as Selective Modulators of Pregnane X Receptor from TüKIC Library” (Cells, 2022)", "experiment_in_all_cases": "Kinase profiling", "format_in_all_cases": "biochemical", "key": {"[1]": {"target": "T1, ACVR2B (Homo sapiens, UniProt Q13705)", "T1 construct": "purchased ProQinase (Freiburg, Germany)", "experimental": "(§1) The analysis was performed by ProQinase (Freiburg, Germany)."}, "[2]": {"target": "T2, BRAF (Homo sapiens, UniProt P15056)", "T2 construct": "purchased ProQinase (Freiburg, Germany)", "T2 sequence (P15056 whole entry)": "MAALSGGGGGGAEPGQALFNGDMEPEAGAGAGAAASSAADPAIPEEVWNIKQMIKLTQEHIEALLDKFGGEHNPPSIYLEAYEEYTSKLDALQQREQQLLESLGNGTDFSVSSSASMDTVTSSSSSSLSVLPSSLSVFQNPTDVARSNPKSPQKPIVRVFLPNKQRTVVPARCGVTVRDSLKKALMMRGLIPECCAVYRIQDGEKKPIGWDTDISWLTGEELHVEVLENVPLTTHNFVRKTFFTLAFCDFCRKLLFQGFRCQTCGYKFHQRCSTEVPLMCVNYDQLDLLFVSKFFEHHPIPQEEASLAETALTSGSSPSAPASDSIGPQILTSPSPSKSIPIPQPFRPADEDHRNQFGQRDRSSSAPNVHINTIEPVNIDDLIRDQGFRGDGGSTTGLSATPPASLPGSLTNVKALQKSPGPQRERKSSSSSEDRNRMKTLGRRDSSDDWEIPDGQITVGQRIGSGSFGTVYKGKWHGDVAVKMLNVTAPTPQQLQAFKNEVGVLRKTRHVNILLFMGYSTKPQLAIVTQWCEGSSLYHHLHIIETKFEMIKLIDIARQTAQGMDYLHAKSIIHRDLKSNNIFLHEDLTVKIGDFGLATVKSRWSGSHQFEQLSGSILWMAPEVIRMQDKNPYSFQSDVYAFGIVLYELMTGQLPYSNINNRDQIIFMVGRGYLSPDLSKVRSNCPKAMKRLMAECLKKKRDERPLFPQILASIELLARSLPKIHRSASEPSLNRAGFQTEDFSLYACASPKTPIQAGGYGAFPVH", "experimental": "as §1"}, "[3]": {"target": "T3, DCAMKL2 (Homo sapiens, UniProt Q8N568)", "T3 construct": "purchased ProQinase (Freiburg, Germany)", "T3 sequence (Q8N568 1-766)": "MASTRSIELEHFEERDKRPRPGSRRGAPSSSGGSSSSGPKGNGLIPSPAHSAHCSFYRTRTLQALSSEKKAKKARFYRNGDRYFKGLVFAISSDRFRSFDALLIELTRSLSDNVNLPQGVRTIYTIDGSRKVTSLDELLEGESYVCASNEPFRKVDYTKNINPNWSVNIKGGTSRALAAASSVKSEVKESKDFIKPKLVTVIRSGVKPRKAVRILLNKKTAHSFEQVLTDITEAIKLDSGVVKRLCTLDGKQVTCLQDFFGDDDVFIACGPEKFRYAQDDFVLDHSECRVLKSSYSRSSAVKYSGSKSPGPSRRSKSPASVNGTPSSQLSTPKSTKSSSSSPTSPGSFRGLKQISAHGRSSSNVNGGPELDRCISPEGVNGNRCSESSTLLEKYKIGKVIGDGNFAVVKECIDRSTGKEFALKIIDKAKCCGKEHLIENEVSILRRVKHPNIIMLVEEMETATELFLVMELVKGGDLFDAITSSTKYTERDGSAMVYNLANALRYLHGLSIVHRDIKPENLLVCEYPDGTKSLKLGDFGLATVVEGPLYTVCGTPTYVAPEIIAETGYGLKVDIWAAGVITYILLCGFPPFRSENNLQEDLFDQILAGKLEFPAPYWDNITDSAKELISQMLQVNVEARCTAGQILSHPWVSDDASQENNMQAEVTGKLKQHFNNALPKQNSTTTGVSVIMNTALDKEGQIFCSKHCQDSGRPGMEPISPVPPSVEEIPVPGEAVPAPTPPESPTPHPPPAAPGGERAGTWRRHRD", "experimental": "as §1"}, "[4]": {"target": "T4, DYRK1B (Homo sapiens, UniProt Q9Y463)", "T4 construct": "purchased ProQinase (Freiburg, Germany)", "T4 sequence (Q9Y463 whole entry)": "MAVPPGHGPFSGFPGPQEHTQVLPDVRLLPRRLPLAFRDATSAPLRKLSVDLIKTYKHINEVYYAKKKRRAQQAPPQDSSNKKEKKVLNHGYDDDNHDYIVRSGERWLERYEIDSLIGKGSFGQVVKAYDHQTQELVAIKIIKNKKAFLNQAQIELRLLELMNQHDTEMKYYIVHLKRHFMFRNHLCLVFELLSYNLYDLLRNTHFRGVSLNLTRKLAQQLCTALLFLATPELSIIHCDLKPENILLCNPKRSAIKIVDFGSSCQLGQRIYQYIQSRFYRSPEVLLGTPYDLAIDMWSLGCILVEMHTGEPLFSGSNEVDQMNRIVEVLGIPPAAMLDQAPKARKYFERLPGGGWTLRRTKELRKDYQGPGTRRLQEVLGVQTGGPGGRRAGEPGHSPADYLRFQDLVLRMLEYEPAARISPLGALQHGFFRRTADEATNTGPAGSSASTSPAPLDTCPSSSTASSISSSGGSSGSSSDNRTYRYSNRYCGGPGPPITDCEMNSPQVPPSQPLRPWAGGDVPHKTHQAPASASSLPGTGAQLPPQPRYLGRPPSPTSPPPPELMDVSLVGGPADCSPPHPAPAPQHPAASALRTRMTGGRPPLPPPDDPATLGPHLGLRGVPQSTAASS", "experimental": "as §1"}, "[5]": {"target": "T5, GSG2 (Homo sapiens, UniProt Q8TF76)", "T5 construct": "purchased ProQinase (Freiburg, Germany)", "T5 sequence (Q8TF76 1-798)": "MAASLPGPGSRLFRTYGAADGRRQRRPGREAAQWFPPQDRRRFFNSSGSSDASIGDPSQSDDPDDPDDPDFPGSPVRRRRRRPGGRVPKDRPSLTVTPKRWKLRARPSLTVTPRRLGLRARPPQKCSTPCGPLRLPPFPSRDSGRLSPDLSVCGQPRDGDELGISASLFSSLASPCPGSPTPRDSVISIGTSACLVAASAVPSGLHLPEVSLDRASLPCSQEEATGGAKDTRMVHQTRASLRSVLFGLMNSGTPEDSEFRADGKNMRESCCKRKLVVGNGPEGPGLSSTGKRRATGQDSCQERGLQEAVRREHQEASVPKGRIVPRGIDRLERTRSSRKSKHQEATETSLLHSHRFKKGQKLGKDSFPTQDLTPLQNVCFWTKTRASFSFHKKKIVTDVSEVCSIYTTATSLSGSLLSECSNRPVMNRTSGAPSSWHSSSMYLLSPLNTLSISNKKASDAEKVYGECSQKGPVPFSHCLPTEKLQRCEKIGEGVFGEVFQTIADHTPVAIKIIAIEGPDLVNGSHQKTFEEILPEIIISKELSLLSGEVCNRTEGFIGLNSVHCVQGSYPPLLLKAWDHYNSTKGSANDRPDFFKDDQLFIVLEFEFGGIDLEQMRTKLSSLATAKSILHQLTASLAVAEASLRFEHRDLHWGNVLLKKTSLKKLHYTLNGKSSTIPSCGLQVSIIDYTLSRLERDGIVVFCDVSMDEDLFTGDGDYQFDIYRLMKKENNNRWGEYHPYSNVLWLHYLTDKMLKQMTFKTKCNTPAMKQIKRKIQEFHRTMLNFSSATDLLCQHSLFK", "experimental": "as §1"}, "[6]": {"target": "T6, INSRR (Homo sapiens, UniProt P14616)", "T6 construct": "purchased ProQinase (Freiburg, Germany)", "T6 sequence (P14616 27-1297)": "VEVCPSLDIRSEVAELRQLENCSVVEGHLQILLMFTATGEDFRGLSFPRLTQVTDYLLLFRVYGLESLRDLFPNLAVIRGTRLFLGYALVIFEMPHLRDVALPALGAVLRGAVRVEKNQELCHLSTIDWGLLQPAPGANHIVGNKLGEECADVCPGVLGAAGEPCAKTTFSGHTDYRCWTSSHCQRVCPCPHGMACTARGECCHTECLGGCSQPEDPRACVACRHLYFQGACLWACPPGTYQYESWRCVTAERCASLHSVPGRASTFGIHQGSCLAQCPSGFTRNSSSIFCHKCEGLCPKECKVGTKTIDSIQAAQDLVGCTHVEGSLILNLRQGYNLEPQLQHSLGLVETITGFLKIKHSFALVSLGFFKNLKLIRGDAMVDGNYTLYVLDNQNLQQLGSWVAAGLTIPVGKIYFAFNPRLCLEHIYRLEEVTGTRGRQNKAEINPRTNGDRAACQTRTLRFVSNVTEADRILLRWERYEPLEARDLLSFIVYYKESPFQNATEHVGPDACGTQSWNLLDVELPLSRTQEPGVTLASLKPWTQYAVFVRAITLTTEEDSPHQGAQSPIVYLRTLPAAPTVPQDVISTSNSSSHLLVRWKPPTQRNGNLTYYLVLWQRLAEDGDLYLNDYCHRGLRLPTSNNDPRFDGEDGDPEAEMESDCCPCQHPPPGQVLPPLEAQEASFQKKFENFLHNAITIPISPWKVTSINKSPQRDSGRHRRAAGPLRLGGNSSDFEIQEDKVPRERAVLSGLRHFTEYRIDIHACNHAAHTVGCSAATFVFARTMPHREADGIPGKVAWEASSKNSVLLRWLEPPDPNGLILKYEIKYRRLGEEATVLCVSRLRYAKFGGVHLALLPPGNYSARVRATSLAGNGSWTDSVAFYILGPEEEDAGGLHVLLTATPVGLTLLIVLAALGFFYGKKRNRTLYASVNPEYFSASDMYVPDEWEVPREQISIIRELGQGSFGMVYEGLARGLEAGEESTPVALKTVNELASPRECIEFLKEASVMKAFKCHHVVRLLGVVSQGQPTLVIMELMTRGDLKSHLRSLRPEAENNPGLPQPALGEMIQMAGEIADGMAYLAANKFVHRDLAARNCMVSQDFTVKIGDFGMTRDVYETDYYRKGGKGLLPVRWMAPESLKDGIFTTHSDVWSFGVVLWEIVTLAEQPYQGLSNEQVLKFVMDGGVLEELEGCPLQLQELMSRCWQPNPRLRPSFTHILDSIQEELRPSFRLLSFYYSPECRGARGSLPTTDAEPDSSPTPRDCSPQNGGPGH", "experimental": "as §1"}, "[7]": {"target": "T7, JNK2 (Homo sapiens, UniProt P45984)", "T7 construct": "purchased ProQinase (Freiburg, Germany)", "T7 sequence (P45984 whole entry)": "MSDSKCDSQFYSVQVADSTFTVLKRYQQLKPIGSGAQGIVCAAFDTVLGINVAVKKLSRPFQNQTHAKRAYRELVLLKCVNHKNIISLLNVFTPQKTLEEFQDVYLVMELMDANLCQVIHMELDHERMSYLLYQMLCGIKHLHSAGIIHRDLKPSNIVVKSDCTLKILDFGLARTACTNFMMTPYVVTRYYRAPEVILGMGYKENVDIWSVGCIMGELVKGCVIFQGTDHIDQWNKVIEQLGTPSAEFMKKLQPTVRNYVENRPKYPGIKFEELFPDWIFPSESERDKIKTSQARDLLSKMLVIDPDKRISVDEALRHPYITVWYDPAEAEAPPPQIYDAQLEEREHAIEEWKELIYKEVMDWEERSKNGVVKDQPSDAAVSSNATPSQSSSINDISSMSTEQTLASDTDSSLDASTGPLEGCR", "experimental": "as §1"}, "[8]": {"target": "T8, LTK (Homo sapiens, UniProt P29376)", "T8 construct": "purchased ProQinase (Freiburg, Germany)", "experimental": "as §1"}, "[9]": {"target": "T9, MATK (Homo sapiens, UniProt P42679)", "T9 construct": "purchased ProQinase (Freiburg, Germany)", "T9 sequence (P42679 1-507)": "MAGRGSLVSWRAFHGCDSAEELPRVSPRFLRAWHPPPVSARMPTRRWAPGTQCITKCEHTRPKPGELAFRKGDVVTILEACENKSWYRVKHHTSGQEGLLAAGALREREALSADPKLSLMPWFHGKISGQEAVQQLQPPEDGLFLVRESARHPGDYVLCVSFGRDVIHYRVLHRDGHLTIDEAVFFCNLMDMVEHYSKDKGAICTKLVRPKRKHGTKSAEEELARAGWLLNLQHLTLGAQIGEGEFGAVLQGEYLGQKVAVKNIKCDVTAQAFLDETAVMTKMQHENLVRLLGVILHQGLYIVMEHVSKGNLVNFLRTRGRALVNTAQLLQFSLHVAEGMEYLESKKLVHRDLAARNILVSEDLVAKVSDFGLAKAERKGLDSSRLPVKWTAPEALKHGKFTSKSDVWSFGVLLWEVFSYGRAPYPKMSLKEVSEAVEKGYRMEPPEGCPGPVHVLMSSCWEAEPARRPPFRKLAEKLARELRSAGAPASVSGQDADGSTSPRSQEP", "experimental": "as §1"}, "[10]": {"target": "T10, MEK1 (Homo sapiens, UniProt Q02750)", "T10 construct": "purchased ProQinase (Freiburg, Germany)", "T10 sequence (Q02750 whole entry)": "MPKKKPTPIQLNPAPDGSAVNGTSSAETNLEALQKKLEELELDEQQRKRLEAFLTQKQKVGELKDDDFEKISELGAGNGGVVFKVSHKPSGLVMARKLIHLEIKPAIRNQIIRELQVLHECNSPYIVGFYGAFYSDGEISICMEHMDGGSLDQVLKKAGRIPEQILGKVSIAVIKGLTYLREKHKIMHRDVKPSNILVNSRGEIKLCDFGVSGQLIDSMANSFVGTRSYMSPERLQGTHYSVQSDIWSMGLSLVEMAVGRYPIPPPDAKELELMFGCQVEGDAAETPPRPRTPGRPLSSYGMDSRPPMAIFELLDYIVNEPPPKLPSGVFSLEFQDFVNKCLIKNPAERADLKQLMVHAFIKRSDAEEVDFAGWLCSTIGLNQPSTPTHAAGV", "experimental": "as §1"}, "[11]": {"target": "T11, MST3 (Homo sapiens, UniProt Q9Y6E0)", "T11 construct": "purchased ProQinase (Freiburg, Germany)", "experimental": "as §1"}, "[12]": {"target": "T12, PAK7 (Homo sapiens, UniProt Q9P286)", "T12 construct": "purchased ProQinase (Freiburg, Germany)", "experimental": "as §1"}, "[13]": {"target": "T13, TTBK2 (Homo sapiens, UniProt Q6IQ55)", "T13 construct": "purchased ProQinase (Freiburg, Germany)", "T13 sequence (Q6IQ55 whole entry)": "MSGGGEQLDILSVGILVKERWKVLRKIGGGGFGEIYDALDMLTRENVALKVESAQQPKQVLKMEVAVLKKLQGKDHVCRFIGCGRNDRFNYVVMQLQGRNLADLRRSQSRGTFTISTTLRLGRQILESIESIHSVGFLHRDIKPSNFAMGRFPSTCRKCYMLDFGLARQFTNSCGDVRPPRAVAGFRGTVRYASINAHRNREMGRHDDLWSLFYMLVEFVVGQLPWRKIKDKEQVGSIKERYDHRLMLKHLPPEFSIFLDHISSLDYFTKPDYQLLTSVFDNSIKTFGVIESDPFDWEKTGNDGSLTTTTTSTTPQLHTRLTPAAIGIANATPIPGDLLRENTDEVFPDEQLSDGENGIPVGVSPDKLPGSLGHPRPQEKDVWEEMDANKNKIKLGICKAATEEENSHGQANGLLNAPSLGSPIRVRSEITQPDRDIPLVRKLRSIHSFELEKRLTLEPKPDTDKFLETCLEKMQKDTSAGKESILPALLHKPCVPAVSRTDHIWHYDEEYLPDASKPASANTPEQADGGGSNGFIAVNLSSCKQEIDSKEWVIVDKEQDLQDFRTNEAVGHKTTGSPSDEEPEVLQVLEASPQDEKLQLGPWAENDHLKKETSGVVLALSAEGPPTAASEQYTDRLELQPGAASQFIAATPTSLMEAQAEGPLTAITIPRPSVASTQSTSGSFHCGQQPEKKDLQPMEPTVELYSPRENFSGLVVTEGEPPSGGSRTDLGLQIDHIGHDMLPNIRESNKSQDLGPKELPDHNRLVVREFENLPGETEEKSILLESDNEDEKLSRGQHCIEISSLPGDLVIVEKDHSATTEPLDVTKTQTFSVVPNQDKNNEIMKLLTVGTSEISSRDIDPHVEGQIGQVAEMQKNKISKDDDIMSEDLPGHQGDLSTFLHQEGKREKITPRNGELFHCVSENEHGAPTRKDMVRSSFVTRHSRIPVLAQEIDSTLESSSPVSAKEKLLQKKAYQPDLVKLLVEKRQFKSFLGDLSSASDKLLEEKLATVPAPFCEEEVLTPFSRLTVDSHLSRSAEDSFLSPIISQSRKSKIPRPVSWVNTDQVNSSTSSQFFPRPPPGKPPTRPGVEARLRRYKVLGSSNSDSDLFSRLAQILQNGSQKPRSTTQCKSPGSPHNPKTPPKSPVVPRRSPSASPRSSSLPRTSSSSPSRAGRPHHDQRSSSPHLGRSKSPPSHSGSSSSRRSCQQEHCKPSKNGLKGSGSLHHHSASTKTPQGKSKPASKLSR", "experimental": "as §1"}}}
{"molecule": "O=C(Nc1ccc(F)c(Nc2ccc3c(c2)CCCCC3=O)c1)c1cccc(F)c1", "note": "[Compound 109]", "values": [{"measurement": "Residual activity", "setting": "[1]; 1.0E-05 M", "value": "167 % of control"}, {"measurement": "Residual activity", "setting": "[1]; 1.0E-06 M", "value": "104 % of control"}, {"measurement": "inhibition at 10 µM", "setting": "[2]", "value": "≥ 50", "unit": "%"}, {"measurement": "Residual activity", "setting": "[2]; 1.0E-05 M", "value": "39 % of control"}, {"measurement": "Residual activity", "setting": "[2]; 1.0E-06 M", "value": "67 % of control"}, {"measurement": "Residual activity", "setting": "[3]; 1.0E-05 M", "value": "103 % of control"}, {"measurement": "Residual activity", "setting": "[3]; 1.0E-06 M", "value": "100 % of control"}, {"measurement": "Residual activity", "setting": "[4]; 1.0E-05 M", "value": "96 % of control"}, {"measurement": "Residual activity", "setting": "[4]; 1.0E-06 M", "value": "103 % of control"}, {"measurement": "Residual activity", "setting": "[5]; 1.0E-05 M", "value": "68 % of control"}, {"measurement": "Residual activity", "setting": "[5]; 1.0E-06 M", "value": "93 % of control"}, {"measurement": "Residual activity", "setting": "[6]; 1.0E-05 M", "value": "83 % of control"}, {"measurement": "Residual activity", "setting": "[6]; 1.0E-06 M", "value": "92 % of control"}, {"measurement": "Residual activity", "setting": "[7]; 1.0E-05 M", "value": "97 % of control"}, {"measurement": "Residual activity", "setting": "[7]; 1.0E-06 M", "value": "88 % of control"}, {"measurement": "Residual activity", "setting": "[8]; 1.0E-05 M", "value": "77 % of control"}, {"measurement": "Residual activity", "setting": "[8]; 1.0E-06 M", "value": "95 % of control"}, {"measurement": "Residual activity", "setting": "[9]; 1.0E-05 M", "value": "95 % of control"}, {"measurement": "Residual activity", "setting": "[9]; 1.0E-06 M", "value": "94 % of control"}, {"measurement": "Residual activity", "setting": "[10]; 1.0E-05 M", "value": "109 % of control"}, {"measurement": "Residual activity", "setting": "[10]; 1.0E-06 M", "value": "109 % of control"}, {"measurement": "Residual activity", "setting": "[11]; 1.0E-05 M", "value": "103 % of control"}, {"measurement": "Residual activity", "setting": "[11]; 1.0E-06 M", "value": "106 % of control"}, {"measurement": "Residual activity", "setting": "[12]; 1.0E-05 M", "value": "93 % of control"}, {"measurement": "Residual activity", "setting": "[12]; 1.0E-06 M", "value": "101 % of control"}, {"measurement": "Residual activity", "setting": "[13]; 1.0E-05 M", "value": "113 % of control"}, {"measurement": "Residual activity", "setting": "[13]; 1.0E-06 M", "value": "105 % of control"}]}
{"molecule": "O=C(Cc1ccccc1)Nc1ccc(F)c(Nc2ccc3c(c2)CCCCC3=O)c1", "note": "[Compound 100]", "values": [{"measurement": "Residual activity", "setting": "[1]; 1.0E-05 M", "value": "169 % of control"}, {"measurement": "Residual activity", "setting": "[1]; 1.0E-06 M", "value": "95 % of control"}, {"measurement": "inhibition at 10 µM", "setting": "[2]", "value": "≥ 50", "unit": "%"}, {"measurement": "Residual activity", "setting": "[2]; 1.0E-05 M", "value": "25 % of control"}, {"measurement": "Residual activity", "setting": "[2]; 1.0E-06 M", "value": "58 % of control"}, {"measurement": "Residual activity", "setting": "[3]; 1.0E-05 M", "value": "89 % of control"}, {"measurement": "Residual activity", "setting": "[3]; 1.0E-06 M", "value": "101 % of control"}, {"measurement": "Residual activity", "setting": "[4]; 1.0E-05 M", "value": "117 % of control"}, {"measurement": "Residual activity", "setting": "[4]; 1.0E-06 M", "value": "103 % of control"}, {"measurement": "Residual activity", "setting": "[5]; 1.0E-05 M", "value": "78 % of control"}, {"measurement": "Residual activity", "setting": "[5]; 1.0E-06 M", "value": "92 % of control"}, {"measurement": "Residual activity", "setting": "[6]; 1.0E-05 M", "value": "90 % of control"}, {"measurement": "Residual activity", "setting": "[6]; 1.0E-06 M", "value": "92 % of control"}, {"measurement": "Residual activity", "setting": "[7]; 1.0E-05 M", "value": "79 % of control"}, {"measurement": "Residual activity", "setting": "[7]; 1.0E-06 M", "value": "87 % of control"}, {"measurement": "Residual activity", "setting": "[8]; 1.0E-05 M", "value": "50 % of control"}, {"measurement": "Residual activity", "setting": "[8]; 1.0E-06 M", "value": "115 % of control"}, {"measurement": "Residual activity", "setting": "[9]; 1.0E-05 M", "value": "86 % of control"}, {"measurement": "Residual activity", "setting": "[9]; 1.0E-06 M", "value": "101 % of control"}, {"measurement": "Residual activity", "setting": "[10]; 1.0E-05 M", "value": "114 % of control"}, {"measurement": "Residual activity", "setting": "[10]; 1.0E-06 M", "value": "112 % of control"}, {"measurement": "Residual activity", "setting": "[11]; 1.0E-05 M", "value": "114 % of control"}, {"measurement": "Residual activity", "setting": "[11]; 1.0E-06 M", "value": "122 % of control"}, {"measurement": "Residual activity", "setting": "[12]; 1.0E-05 M", "value": "92 % of control"}, {"measurement": "Residual activity", "setting": "[12]; 1.0E-06 M", "value": "99 % of control"}, {"measurement": "Residual activity", "setting": "[13]; 1.0E-05 M", "value": "126 % of control"}, {"measurement": "Residual activity", "setting": "[13]; 1.0E-06 M", "value": "109 % of control"}]}
